Measurements taken from patent US20090253622A1, “USE OF TLR3 AGONISTS FOR THE TREATMENT OF NEURODEGENERATIVE DISORDERS” (Nederlandse Organisatie voor toegepast - …, priority 2006, published 2009).
Each block holds one molecule with its values, some of them ahead of it.

Key:
[1] = molecular target: human Toll-like receptor 3 (human) (UniProt O15455); assay: cell-based or functional assay
TLR3 [2] = assay: TLR expression in cultured adult human astrocytes by real-time PCR; format: cell-based
Experimental: Adult human astrocytes from post-mortem subcortical white matter samples were isolated and cultured as previously described (Bsibsi et al., J Neuropath Exp Neurol 61:1013-1021 [2002]). As determined by specific staining for cellular markers for astrocytes (glial fibrillary acidic protein; GFAP) and microglia (CD68) astrocyte cultures were essentially homogeneous; as a rule all cells expressed GFAP and none of them expressed CD68. When indicated astrocytes were stimulated with 50 μg/mL poly I:C (Amersham Pharmacia Biotech, Piscataway, N.J.) or 200 ng/mL LPS (Sigma-Aldrich, Steinheim, Germany) to activate TLR3 and TLR4, respectively. These doses were selected on the basis of maximum effects in astrocytes. It should be noted that contaminants in the commercial LPS preparation could possibly lead to some level of TLR2 activation in addition to TLR4 by the LPS preparation used but not of TLR3. When stimulated with cytokines, astrocytes were supplied with TNF-α, IFN-γ, IL-1β (each at 500 U/mL), IL-4 (at 250 U/mL), IL-6 (at 200 U/mL), IL-12 (at 50 ng/mL), IL-10 (at 20 ng/mL) and TGF-β (at 12.5 ng/mL) (PeproTech, Rocky Hill, N.Y.). Control cDNA array profiling experiments included treatment with 50 μg/mL cycloheximide for 30 min prior to and during poly I:C treatment, or with 200 U/mL IFNβ (Avonex). Endothelial cells (UVEC) were isolated from umbillical cords and cultured on gelatin-coated dishes in M199 supplemented with 20 nM HEPES, 10% human serum, 10% heat-inactivated NBCS, 150 mg/mL ECGF, 5 U/mL heparin, 100 IU/mL penicillin and […] streptomycin. Total cellular RNA was isolated using RNA-Bee™ as previously described (Bsibsi et al., [2002] supra). Subsequently, RNA was reverse transcribed into cDNA and levels of TLR1-10 and β-actin as a reference were determined by quantitative real-time PCR. The following fluorogenic molecular beacons and primers (Biolegio, Nijmegen, The Netherlands) were used: The β-actin beacon contained 5′ fluorescein VIC, and the 3′ quencher Dabcyl. […] Data were analyzed using sequence detector version 1.7 software.

[3] = system: experimental autoimmune encephalomyelitis; conditions: mice treated 5, 7 and 9 days after induction of the disease; cited from earlier work
human adult astrocytes = assay: cDNA array profiling of cytokine, chemokine and growth factor genes in human adult astrocytes; format: cell-based
Experimental: Adult human astrocytes from post-mortem subcortical white matter samples were isolated and cultured as previously described (Bsibsi et al., J Neuropath Exp Neurol 61:1013-1021 [2002]). […] When indicated astrocytes were stimulated with 50 μg/mL poly I:C (Amersham Pharmacia Biotech, Piscataway, N.J.) or 200 ng/mL LPS (Sigma-Aldrich, Steinheim, Germany) to activate TLR3 and TLR4, respectively. […] It should be noted that contaminants in the commercial LPS preparation could possibly lead to some level of TLR2 activation in addition to TLR4 by the LPS preparation used but not of TLR3. When stimulated with cytokines, astrocytes were supplied with TNF-α, IFN-γ, IL-1β (each at 500 U/mL), IL-4 (at 250 U/mL), IL-6 (at 200 U/mL), IL-12 (at 50 ng/mL), IL-10 (at 20 ng/mL) and TGF-β (at 12.5 ng/mL) (PeproTech, Rocky Hill, N.Y.). […] Endothelial cells (UVEC) were isolated from umbillical cords and cultured on gelatin-coated dishes in M199 supplemented with 20 nM HEPES, 10% human serum, 10% heat-inactivated NBCS, 150 mg/mL ECGF, 5 U/mL heparin, 100 IU/mL penicillin and […] streptomycin.
Analysis of the mRNA profile of astrocytes was performed by hybrid selection of ^32P-labeled cDNA on Clontech human cytokine/chemokine Atlas® arrays as previous described (Meeuwsen et al., Glia 43:243-253 [2003]). Hybridization signals for each of the 268 cytokine, chemokine and growth factor (receptor) genes were calculated as the mean of duplicate measurements, corrected for background intensity and quantified using software provided by the manufacturer. Relative expression was calculated by dividing these hybridization signals by the mean signal for all nine housekeeping reference genes on the corresponding array.
Gene profiling was performed using astrocytes from four different control donors.
Astrocytes were isolated from post mortem human brain tissue samples and cultured under conditions as described elsewhere in this application. One part of the culture was stimulated with 50 μg/ml stathmin, the second with 50 μg/ml poly I:C and a third was left untreated to served as a reference control. Following another 48 h RNA was isolated from each culture and ^32P-labeled cDNA was prepared by reverse transcription. Subsequent hybrid selection of these ^32P-labeled cDNA samples was performed on Clontech Atlas® arrays containing selective probes for 268 cytokines, chemokines and growth factors, and various receptors for these mediators. All hybridization signals were calculated as the mean of duplicate measurements, corrected for background intensity and quantified using software provided by the manufacturer. Relative signal strength was next calculated by dividing these averaged hybridization signals by the mean signal for all nine housekeeping reference genes that were also present on each array as a reference.

TLR3 [4] = assay: CXCL8 release by cultured human astrocytes (ELISA); format: cell-based
Experimental: Cos-7 cells (25,000 cells per well in 96-well plates) were transfected for 5 h with 768 pools of cDNA derived from human brain tumours (5 pooled tumours including meningioma, oligodendroglioma, astrocytoma grades II and IV, and medulloblastoma; NCI CGAP Brn35; Invitrogen) using lipofectamine, after which cells were thoroughly washed. Transfection with green-fluorescent protein-encoding cDNA was used as an internal control for transfection efficiencies. After continued culture of the transfected cells for 48 h, 75 μL of each culture supernatant was harvested and added to cultured human astrocytes seeded at 1,000 cells per well in 75 μL. After 48 h of culture, supernatants were harvested and evaluated for CXCL8 release using ELISA. Stimulation of astrocytes with poly I:C served as positive controls for CXCL8 release in all cases, non-transfected Cos 7 culture supernatants as negative controls.
(§1) Purified recombinant stathmin was exposed to two different conditions that differentially affect the extent of helix formation within the protein chain. One part of the protein preparation was exposed to 5% trifluoroacetic acid (TFA) in water for 1 h at 37° C., strongly acidic conditions that tend to disrupt an alpha helix. In parallel, another part was exposed for 1 h at 37° C. to 5% of the helix-promoting solvent trifluoroethanol (TFE) in phosphate-buffered saline (PBS). After exposure to these different conditions, both protein samples were extensively dialysed for 48 h against several changes of PBS. Next, the samples were analyzed by […] circular dichroism spectroscopy that allows calculation of helical content on the basis of elipticity in the absorption of circularly polarized light. In both cases, another part of the dialyzed sample was tested in parallel for induction of TLR3-mediated release of CXCL8 (IL-8) in human astrocytes as described elsewhere in this application.

[5] = system: neurons in organotypic human brain slice cultures; assay: Neuronal survival in organotypic human brain slice cultures (calcein-AM / ethidium homodimer-1); format: cell-based; conditions: slices cultured 1 week; p<0.03
Experimental: Organotypic human brain slice cultures were set up and analyzed as previously described (Verwer et al., FASEB J. 16:54-60 [2002]). Briefly, tissue blocks were collected from different post-mortem cortical samples and 200-μm slices were produced. These slices were cultured for 1 week in Poly I:C- or LPS-conditioned astrocyte media that were obtained upon culturing astrocytes in the presence of either 50 μg/mL poly I:C or 200 ng/mL LPS. As a control untreated astrocyte-conditioned media from the same donor was used. All astrocyte-conditioned media were harvested after 48 h and stored at −20° C. Viability of neurons in the slice cultures was evaluated using calcein-AM and ethidium homodimer-1 (molecular Probes, Eugene, Oreg.). A Zeiss 410 Invert confocal laser scanning microscope was used to inspect the slices and quantify staining.

[6] = system: astrocytes from TLR3-deficient mice; assay: IL-6 release by astrocytes from TLR3-deficient mice (ELISA); format: cell-based; conditions: TLR3-deficient mouse astrocytes, 48 h
Experimental: (§2) Astrocytes were cultured in poly L-lysine coated 96 well-flat-bottom plates at 1×10^4 cells per well in 100 l DMEM/HAM-F10 medium containing 10% FCS and antibiotic supplements for 24 h to obtain post-confluent cultures. Recombinant human stathmin was next added to astrocytes, and parallel control stimuli were performed with either poly I:C, an established TLR3 agonist, or ultrapure lipopolysaccharides, established TLR4 agonists. After addition of these stimuli astrocytes were incubated for another 48 h. Astrocyte culture supernatants were subsequently collected and using a commercial ELISA kit levels of IL-6 were determined, as a marker for TLR-mediated activation of murine astrocytes.

TLR3 [7] = assay: IL-6 release by astrocytes from wild-type mice (ELISA); format: cell-based; conditions: wild-type mouse astrocytes, 48 h
Experimental: as §2

[8] = Circular dichroism spectroscopy, helical content; format: physicochemical; conditions: pre-treated 1 h at 37° C., dialysed 48 h against PBS
Experimental: as §1, with “[…] […]” for “In parallel, another part was exposed for 1 h at 37° C. to 5% of the helix-promoting solvent trifluoroethanol (TFE) in phosphate-buffered saline (PBS). After exposure to these different conditions, both protein samples were extensively dialysed for 48 h against several changes of PBS.”

[9] = agonist-treated vs untreated astrocytes, 48 h

- Pearson correlation coefficient (r) between gene expression profiles (268 genes) of human astrocytes stimulated with 50 µg/ml stathmin or 50 µg/ml poly I:C [1]: 0.951
- TLR3-mediated release of CXCL8 (IL-8) in human astrocytes: TFE-treated stathmin (37% alpha helix) against TFA-treated stathmin (12% alpha helix) [1]: 3 fold
Molecule: recombinant human stathmin (from UniProt P16949 1-149) (ligand)

Molecule: TGF-β: anti-inflammatory cytokine, 12.5 ng/mL
- induction of TLR3 expression (in words) (TLR3 [2]): No induction of TLR3

Molecule: OO [H2O2]
- induction of TLR3 expression (in words) (TLR3 [2]): selective induction of TLR3

- ERBB4 receptor protein-tyrosine kinase, ratio of expression (human adult astrocytes; [9]): 0.43
- VEGF receptor 2, ratio of expression (human adult astrocytes; [9]): 0.22
Molecule: poly I:C
- disease development in EAE [3]: almost completely blocks subsequent disease development
- change in expression of genes encoding immune mediators and growth factors (human adult astrocytes; 50 μg/ml, 48 h): comprehensive and marked change in expression
- Jag1, downregulation factor (human adult astrocytes; 48 h): 1.96
- p40 subunit of IL-12 and IL-23, down-regulation factor (human adult astrocytes; 48 h): ~2
- Smo, ratio of expression (human adult astrocytes; [9]): 0.48
- induction of chemokines CXCL8, CXCL2 and CCL3 (human adult astrocytes; astrocytes): strongly induced
- induction of IL-9 (human adult astrocytes; astrocytes, 48 h): 7.5 fold
- induction of IL-10 (human adult astrocytes; astrocytes, 48 h): 2.3 fold
- induction of IL-11 (human adult astrocytes; astrocytes, 48 h): 3.2 fold
- induction of TNF-α (human adult astrocytes; astrocytes, 48 h): induced
- induction of tumour necrosis factor-stimulated gene 6 (TSG-6) (human adult astrocytes; astrocytes, 48 h): over 10 fold
- induction of CCL4, CXCL6, CCL5, CXCL9 and CCL2 (human adult astrocytes; astrocytes, to a lesser extent): leads to induction
- release levels of CXCL8 (TLR3 [4]; human adult astrocyte cultures): around 200 ng/mL
- survival of neurons [5]: promoted neuronal survival equally well
- IL-6 release [6]: fully abrogated
- IL-6 release (TLR3 [7]): marked IL-6 release

B1: TFA-treated sample: purified recombinant stathmin exposed to 5% TFA in water for 1 h at 37° C. and dialysed against PBS (protein, UniProt P16949 2-149, looked up)
Stathmin: ASSDIQVKELEKRASGQAFELILSPRSKESVPEFPLSPPKKKDLSLEEIQKKLEAAEERRKSHEAEVLKQLAEKREHEKEVLQKAIEENNNFSKMAEEKLTHKMEANKENREAQMAAKLERLREKDKHIEEVRKNKESKDPADETEAD
modifications: TFA-treated
notes: purified recombinant stathmin exposed to 5% TFA in water for 1 h at 37° C. and dialysed against PBS
- alpha helical content [8]: 12%

B2: TFE-treated sample: purified recombinant stathmin exposed to 5% TFE in PBS for 1 h at 37° C. and dialysed against PBS (protein, UniProt P16949 2-149, looked up)
Stathmin: B1 Stathmin
modifications: TFE-treated
notes: purified recombinant stathmin exposed to 5% TFE in PBS for 1 h at 37° C. and dialysed against PBS
- activity in activating astrocytes (CXCL8/IL-8 release), TFE-treated relative to TFA-treated sample (TLR3 [4]; on weight basis): about 3 fold
- alpha helical content [8]: 37%

B3: IL-10: anti-inflammatory cytokine, 20 ng/mL (protein, UniProt P22301 19-178, looked up)
Interleukin-10: SPGQGTQSENSCTHFPGNLPNMLRDLRDAFSRVKTFFQMKDQLDNLLLKESLLEDFKGYLGCQALSEMIQFYLEEVMPQAENQDPDIKAHVNSLGENLKTLRLRLRRCHRFLPCENKSKAVEQVKNAFNKLQEKGIYKAMSEFDIFINYIEAYMTMKIRN
- induction of TLR3 expression (in words) (TLR3 [2]): No induction of TLR3
